Test results taken from US9233961B2, “Compounds and compositions for the treatment of parasitic diseases” (Novartis AG, priority 2013, dated 2016).
Read-outs that look alike come from different tables or passages of the source.

Key:
[1] = tested on: Leishmania donovani axenic amastigote parasites; experiment: Leishmania donovani axenic amastigote proliferation assay; type: cell-based; details: axenic amastigotes in vitro, read-out: L. donovani amastigotes EC50
Outline: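 L. donovani axenic amastigotes (9600/well) in RPMI 1640 with 20% heat-inactivated FBS, folic acid, adenosine, glucose and 25 mM MES, pH 5.5, were incubated with compounds for 2 days at 37 °C, 5% CO2. Viability read by CellTiter-Glo luminescence; EC50 calculated.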

[2] = tested on: L. donovani HU3 strain in mouse peritoneal macrophages; experiment: Assay for proliferation of Leishmania parasites in mouse peritoneal macrophages; type: cell-based, Leishmania donovani; details: Leishmania donovani, Peritoneal macrophage, read-out: L. donavani Macrophage EC50
Outline: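 BALB/c peritoneal macrophages infected 24 h with L. donovani HU3 amastigotes taken from spleens of mice infected 9–11 weeks, then treated with compound for 5 days at 37° C, 5% CO2. Parasite nuclei counted by SYBR Green imaging after fixation; EC50 from percentage inhibition.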

[3] = tested on: Trypanosoma brucei Lister 427 strain bloodstream form; experiment: Assay for proliferation of kinetoplastid parasite Trypanosoma brucei; type: cell-based; details: Lister 427 bloodstream form, 48 hours, read-out: T. brucei EC50
Outline: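 Bloodstream-form T. brucei Lister 427 in HMI-9 medium was exposed to compound (DMSO vehicle) for 48 hours at 37° C, 5% CO2. Parasite growth was read as ATP by CellTiter-Glo luminescence, with EC50 calculated from percent inhibition.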

[4] = tested on: Trypanosoma cruzi amastigotes (Tulahuen strain) cultured in 3T3 fibroblast cells; experiment: Assay for proliferation of kinetoplastid parasite Trypanosoma cruzi; type: cell-based; details: 144 h, 6 day incubation
From the text: Assay for Proliferation of Kinetoplastid Parasite Trypanosoma cruzi.
Compounds of the invention can be assayed to measure their capacity to inhibit proliferation of kinetoplastid parasite Trypanosoma cruzi. The screening procedure is for identifying compounds with inhibitor activity against Trypanosoma cruzi amastigotes cultured in 3T3 fibroblast cells. The assay is done using the mammalian stage (amastigotes) of T. cruzi that replicates in the intracellular space of host cells. The host cells are initially infected with the culture-derived trypomastigotes that rapidly invade and then divide as amastigotes. The protocol uses the Tulahuen strain of T. cruzi that has been engineered to express the E. coli beta-galactosidase gene (Lac-Z) (Antimicr. Agents Chemoth. 40:2592, 1996). This allows for a colorimetric readout by using the substrate CPRG and an absorbance plate reader.
3T3 fibroblast cells are re-suspended in RPMI-1640 medium without phenol red medium supplemented with 10% FBS (heat inactivated), 100 μg/ml penicillin, and 100 μg/ml streptomycin. Forty μL of suspension (1,000 cells) is dispensed into 384-well plates and incubated overnight at 37° C. temperature and in atmosphere containing 5% CO2. The following day, 100 nL of compounds of the invention in DMSO are added to plate wells containing 3T3 cells. At the same time control compounds (benznidazole and nifurtimox) and DMSO are added to plates to serve as the positive and negative controls, respectively. After that, 10 μL of media containing 10,000 T. cruzi trypomastigotes are added to each plate well and plates are placed back into incubators. After 6 day incubation, 10 μL of reagent solution (0.6 mM CPRG, 0.6% NP-40 in PBS) is added to plates and incubated at room temperature for 2 hours. Absorbance is then measured on SpectraMax Gemini […] to determine relative number of T. cruzi cells present in each plate well. The percentage inhibition of 50%, EC50, is calculated for each compound. […] Typically, the EC50 is 10 μM or less.

[5] = Tulahuen amastigotes in 3T3 fibroblast cells, read-out: T cruzi EC50

Compound	EC50 [1] [µM]	EC50 [2] [µM]	EC50 [3] [µM]	EC50 [4, 5] [µM]	EC50 ([4]; TULAHUEN, T. cruzi in 3T3 fibroblast cells, CPRG absorbance, read-out: EC50) [µM]
Cc1cnc2nc(-c3cc(NC(=O)c4ccc(C)[nH]4)ccc3Cl)[nH]c2c1 [Compound 124]	> 25	13.8	> 25	> 14.3	
Cc1cnc2nc(-c3cc(NC(=O)Cc4ccc(F)cc4)ccc3Cl)[nH]c2c1 [Compound 125]	> 25	8.6	10	9.6	
Cc1cnc2nc(-c3cc(NC(=O)c4ccc(C)o4)ccc3Cl)[nH]c2c1 [Compound 126]	1.6	1.63	0.303	0.148	
Cc1cnc2nc(-c3cc(NC(=O)c4cnc[nH]4)ccc3Cl)[nH]c2c1 [Compound 128]	> 25	> 50	> 25	> 20	
Cc1cnc2nc(-c3cc(NC(=O)C4CCCCO4)ccc3Cl)[nH]c2c1 (centres unmarked) [Compound 131]	22.1	> 50	5.1	6.8	
COc1cccc(C(=O)Nc2ccc(Cl)c(-c3nc4ncc(C)cc4[nH]3)c2)c1 [Compound 134]	21.4	13.9	0.89	2.59	
Cc1cnc2nc(-c3cc(NC(=O)c4cnc(Cl)cn4)ccc3Cl)[nH]c2c1 [Compound 135]	> 25	> 25.9	> 1.51	> 20	
Cc1cnc2nc(-c3cc(NC(=O)C4CCCO4)ccc3Cl)[nH]c2c1 (centres unmarked) [Compound 138]	> 25	> 50	> 25	> 20	
COc1ccc(C(=O)Nc2ccc(Cl)c(-c3nc4ncc(C)cc4[nH]3)c2)c(OC)c1 [Compound 147]	> 25	8.8	3.6	2.41	
Cc1cnc2nc(-c3cc(NC(=O)Cc4ccncc4)ccc3Cl)[nH]c2c1 [Compound 148]	> 25	> 50	> 24.6	> 20	
Cc1cnc2nc(-c3cc(NC(=O)c4ccccc4Cl)ccc3Cl)[nH]c2c1 [Compound 149]	> 25	9.2	10.9	0.55	
Cc1cnc2nc(-c3cc(NC(=O)c4ccccc4N(C)C)ccc3Cl)[nH]c2c1 [Compound 150]	> 25	22.8	12.1	8.9	
Cc1cnc2nc(-c3cc(NC(=O)c4cccn4C)ccc3Cl)[nH]c2c1 [Compound 151]	17.1	19.5	1.83	3.7	
Cc1cnc2nc(-c3cc(NC(=O)c4ccc(Cl)s4)ccc3Cl)[nH]c2c1 [Compound 152]	> 25	4.5	5.6	> 11.5	
Cc1cnc2nc(-c3cc(NC(=O)C4CCCCN4)ccc3Cl)[nH]c2c1 (centres unmarked) [Compound 171]	> 25	> 50	> 7.5	7.5	
Cc1cnc2nc(-c3cc(NC(=O)c4nccnc4O)ccc3Cl)[nH]c2c1 [Compound 174]	> 25	> 50	> 25	> 20	
CN(C(=O)OC(C)(C)C)c1ccc(-c2cnc3nc(-c4cc(NC(=O)N5CCCC5)ccc4Cl)[nH]c3c2)cc1 [Compound 332, tert-butyl N-[4-(2-{2-chloro-5-[(pyrrolidin-1-yl)carbonylamino]phenyl}-1H-imidazo[4,5-b]pyridin-6-yl)phenyl]-N-methylcarbamate]					0.006
